# Experiments:
# LDL-C = assay: Randomized, double-blind 12-week study: lipid-lowering efficacy in patients with prior statin MRSEs; type: in vivo, human (patients)
# Method: (§1) A randomized, double-blind, double-dummy, parallel-group, multicenter study evaluating the efficacy and tolerability of fluvastatin XL 80 mg/day, and ezetimibe 10 mg/day, alone or in combination, is conducted according to the ethical principles of the Guidelines for Good Clinical Practice and the Declaration of Helsinki of the World Medical Association. Patients are recruited in 27 centers in Germany, Greece, Norway, Russia, Turkey and the United States. The protocol is approved by local ethics committees or institutional review boards. Written, informed consent before randomization are provided by all patients.
# After a minimum 5-week lead-in, drug wash-out and diet stabilization period, patients who fulfilled the study criteria are randomized in a 1:1:1 ratio to 12-week treatment with fluvastatin XL 80 mg plus matched placebo for ezetimibe 10 mg, or ezetimibe 10 mg plus matched placebo for fluvastatin XL 80 mg, or fluvastatin XL 80 mg plus ezetimibe 10 mg. […] Compliance is assessed by study personnel using pill counts at each visit. […]
# Initial screening includes medical history, physical examination, clinical chemistry, hematology and urinalysis. […] AI and Apo-B are measured at weeks 0, 4, 8 and 12. High sensitivity C-reactive protein (hs-CRP) is measured at weeks 0 and 12. […] LDL-C is calculated using the Friedewald formula when triglyceride levels <400 mg/dL. […]
# [1] = Randomized, double-blind 12-week study: safety, tolerability and recurrence of muscle-related side effects (MRSE); type: in vivo, human (patients)
# Method: as §1
# After a minimum 5-week lead-in, drug wash-out and diet stabilization period, patients who fulfilled the study criteria are randomized in a 1:1:1 ratio to 12-week treatment with fluvastatin XL 80 mg plus matched placebo for ezetimibe 10 mg, or ezetimibe 10 mg plus matched placebo for fluvastatin XL 80 mg, or fluvastatin XL 80 mg plus ezetimibe 10 mg. For blinding purposes tablets for fluvastatin XL/placebo and capsules for ezetimibe/placebo are used. Treatment assignment is unbiased and concealed from patients and investigator staff, by a randomization list produced by the sponsor using a validated system that automates the random assignment of treatment groups. Treatment remains fully blinded from the time of randomization until database lock. Trial medication is taken with water at bedtime. Compliance is assessed by study personnel using pill counts at each visit. Patients are to continue a low saturated fat and cholesterol-restricted diet and exercise regimen.
# The study enrolls men and women 18 years of age or older with dyslipidemia who have previously experienced documented MRSEs that have led to cessation of statin treatment, or patients currently receiving statin treatment (other than fluvastatin) whose quality of life is affected by MRSEs and require switching to an alternative treatment. MRSEs include myalgia (defined as muscle ache, pain or discomfort), muscle cramps, lack of strength during effort, heaviness and/or weakness without creatine kinase elevation >3 times upper limit of normal.
# Safety evaluations include regular monitoring of all adverse events, urine, hematology, blood chemistry, as well as physical examination and assessment of vital signs. MRSEs are assessed before and during the study using a standard questionnaire as detailed in Table 1.
# Objectives of this study are to assess LDL-C reduction from baseline of (1) fluvastatin XL 80 mg in combination with ezetimibe 10 mg compared with ezetimibe 10 mg monotherapy and (2) fluvastatin XL 80 mg compared with ezetimibe 10 mg. Objectives of the study are also include (1) to assess the tolerability of fluvastatin XL 80 mg and ezetimibe 10 mg alone or in combination as determined by the rate of recurrence of MRSEs and the rate of recurrence of MRSEs leading to study drug discontinuation; (2) to assess the effect of fluvastatin XL 80 mg alone or in combination with ezetimibe 10 mg on total cholesterol, triglycerides, HDL-C, LDL-C:HDL-C ratio, Apo-AI and Apo-B compared with ezetimibe 10 mg monotherapy; (3) to determine the number of patients in each treatment group who reached target LDL-C levels according to the current National Cholesterol Education Program guidelines, (4) to assess the effect of fluvastatin XL 80 mg and ezetimibe 10 mg alone or in combination on hs-CRP; and (5) to assess the overall safety and tolerability profile of fluvastatin XL 80 mg and ezetimibe 10 mg alone or in combination.
# With a sample size of 70 patients per treatment group, the study has 90% power to detect a difference of 9.65% between the population means, using a two-sided comparison with α equal to 0.05 and assuming a standard deviation of 17.5% in both groups. Efficacy and tolerability analyses are performed using the intent-to-treat population, defined as all patients receiving at least 1 dose of study drug. […]
compound,measurement,setting,value
O=C1[C@H](CC[C@H](O)c2ccc(F)cc2)[C@@H](c2ccc(O)cc2)N1c1ccc(F)cc1 [Ezetimibe],LDL-C lowering from baseline,"LDL-C; baseline to week 12 or study end (LOCF), fluvastatin XL 80 mg/day, ezetimibe 10 mg/day",15.6%
same,patients achieving a LDL-C level of <100 mg/dL at study end,LDL-C; subgroup of 91 patients in the high-risk category,4%
same,"MRSE recurrence leading to discontinuation, incidence rate",[1]; 12-week treatment,8%
same,"MRSE recurrence leading to discontinuation, number of patients",[1]; 12-week treatment,5 patients
same,"any MRSE recurrence, incidence rate",[1]; 12-week treatment,24%
same,"any MRSE recurrence, number of patients",[1]; 12-week treatment,16 patients
same,patients prematurely discontinued from the study due to adverse events,[1]; 12-week treatment,8 patients
same,patients reporting an adverse event,"[1]; 12-week treatment, safety population",39 patients
same,"median time to first event, MRSE recurrence leading to discontinuation",[1]; in vivo,2.57 weeks
same,"median time to first event, any MRSE recurrence",[1]; in vivo,3.07 weeks

# Source: patent US20090275551A1, “Fluvastatin for the treatment of patients with a history of muscle related side effects with other statins” (priority 2007, published 2009)
